Type in all cases: functional
In one test the test system is Cryptococcus neoformans. Description: Antifungal activity against Cryptococcus neoformans.
For another test, the system named is Staphylococcus aureus. The test can be described thus: Antibacterial activity against Staphylococcus aureus.
A further test has as its system Aspergillus fumigatus. Description: Antifungal activity against Aspergillus fumigatus.

Structures are written as SMILES. Values after ≈ are worked out from the molar mass of the structure shown.

A word on the MIC: it is the lowest concentration found to suppress growth. Read a low MIC as a more susceptible organism. Consider `CC(C)=CCc1cc(-c2coc3cc(O)ccc3c2=O)ccc1O` [NEOBAVAISOFLAVONE], for which the MIC was 50 µg/mL (≈ 155 µM) against Cryptococcus neoformans, 3.2 µg/mL (≈ 9.93 µM) with Staphylococcus aureus and 50 µg/mL (≈ 155 µM) in the test with Aspergillus fumigatus.

For the origin of these results see ChEMBL document CHEMBL1148050, “Sigmoidins J and K, two new prenylated isoflavonoids from Erythrina sigmoidea” (1994).
